Source: US6759520B1, “Chimeric analgesic peptides” (priority 1999, dated 2004)

Experiments:
Sprague Dawley rats [1] = test: Tail flick test after intrathecal administration; type: in vivo, rat; settings: for change in analgesia, antagonist alone: control experiment, p>0.05
Method: (§1) ESP7 was tested clinically in rats to determine analgesic effect and tolerance. The classical tail flick test was used to measure pain response and thermal pain was mimicked using a heat source. This system was controlled using standard opioids. The drug was administered with cyclodextran to increase solubility of the peptide in an aqueous solution.
Adult male Sprague Dawley rats (200-250 g) were implanted with chronic indwelling intrathecal catheters using a modified protocol of Yaksh and Rudy, Physiol. Behav., 17: 1031-1036 (1976). […] The rats were anesthetized throughout the surgery with 5.0% isoflurane. The catheter was inserted through the alanto-occipital membrane and into the intrathecal space using a guide wire. Sutures were used to secure the placement of the catheter. The rats were allowed to recover from surgery for 3-4 days and any rats with neurological impairment were not used for analgesic measurements. Rats were housed separately in a 12 hr light-dark cycle with free access to food and water. During their recovery from surgery, rats were habituated to the laboratory environment and analgesic testing apparatus.
For measurement of the thermal anti-nociceptive properties of the peptides of interest, the tail flick test was employed. Rats were first habituated to the tail flick chamber. During testing, the rats were placed in the chamber and a light source, which generated heat, was directed at their tail. The latency to remove the tail was recorded. The baseline latency was approximately 3.5 sec and the cutoff latency was 10 sec to avoid tissue damage. Three measurements were made at each pre- and post-treatment time point and the results were averaged. Responses were expressed as % maximum possible effect: […]
Rats were given doses of 1.0 μg (FIG. 5), 0.2 μg (FIG. 6), and 0.05 μg (FIG. 7) of ESP7. The desired concentration of the compound (in 10 μl) was injected into the catheter followed by 10 μl saline flush to fill the dead volume. ESP7 was combined with two molecules of cyclodextrin (ESP7+2CD) to increase solubility. […]

μ receptor = target: T1, μ receptor (Rattus norvegicus, UniProt P33535); test: μ receptor binding assay, [3H]DAMGO competition, crude rat brain plasma membranes
T1 construct: frozen rat brains (−80° C.) were homogenized in 40 volumes of standard Tris buffer; from tissue; host or cells: rat brain (crude plasma membranes)
Method: For binding assays to opioid receptors, frozen rat brains (−80° C.) were homogenized in 40 volumes of standard Tris buffer (50 mM Tris HCl (pH 7.4), 0.2 mg/ml BSA, 2.5 mM EDTA, 40 μg/ml bacitracin, 30 μg/ml bestatin and 5 mM MgCl2) and centrifuged at 15,000×g for 20 minutes. 100 mM NaCl was added to the buffer, in order to remove endogenous ligands, and the centrifugation was repeated. After a wash with standard buffer, the membrane preparation was finally resuspended in 10 volumes of incubation buffer (standard buffer with 4 μg/ml leupeptin and 2 μg/ml chymostatin). […] The brain homogenates were used on the day of preparation.
Binding assays for the μ receptor were performed at 4° C. for 90 minutes, as described in Zadina et al., Life Sci, 55: 461-466 (1994). […] After incubation the samples were filtered on a Brandell-Harvester using an appropriate GF/B filter soaked in 50 mM Tris HCl (pH 7.4) and 0.5% PEI. Scintillation fluid was added to the filters in order to solubilize the membranes, and a beta-counter was used to quantify radioactivity.

Sprague Dawley rats [2] = test: Tail flick test after intracerebroventricular administration; type: in vivo, rat; settings: 1.0 μg intracerebroventricular; data not shown
Method: as §1
Adult male Sprague Dawley rats weighing 200-250 g were used. Before surgery, the rats were anesthesized with 0.2-0.3 mL of xylazine (10%) and ketamine (90%). Rats were positioned in a stereotaxic apparatus and the bregma was located. To reach the lateral ventricle, a hole was drilled 0.8 mm caudal and 1.4-1.5 mm left or right of the bregma. The catheter was inserted 4.5 mm deep into the brain and 4.0 cm of polyethylene tubing was connected to the end to the catheter. Screws and dental cement were used to secure the catheter in place. After suturing the skin, the rats were allowed to recover from surgery for 4-5 days. Each rat was housed separately in a 12 hr light-dark cycle with free access to food and water. Rats with any neurological problems were not used in the analgesic testing.
The tail flick assay was used to measure analgesia as described above in Example 2.1. Briefly, the rats were first habituated to the tail flick chamber. […] The latency to remove the tail was recorded. […] Responses were expressed as % maximum possible effect (MPE): [formula]

NK1 receptor = target: T2, NK1 receptor (Rattus norvegicus, UniProt P14600); test: SP (NK1) receptor binding assay, [125I]BH-SP competition, crude rat brain plasma membranes
T2 construct: The same procedure was followed for the SP receptor except the wash with NaCl was eliminated; from tissue; host or cells: rat brain (crude plasma membranes)

rats = test: Tail flick test after intraperitoneal administration; type: in vivo, rat; settings: 1 mg intraperitoneal
Method: as §1
ESP7 was administered intraperitoneally in order to assess the effectiveness of ESP7 systemically. The tail flick assay was used to measure analgesia as described above in Example 2.1. Briefly, the rats were first habituated to the tail flick chamber. During testing, the rats were placed in the chamber and a light source, which generated heat, was directed at their tail. The latency to remove the tail was recorded. The baseline latency was approximately 3.5 sec and the cutoff latency was 10 sec to avoid tissue damage. Three measurements were made at each pre- and post-treatment time point and the results were averaged. Responses were expressed as % maximum possible effect (MPE): [formula]

T2 sequence (P14600 whole entry): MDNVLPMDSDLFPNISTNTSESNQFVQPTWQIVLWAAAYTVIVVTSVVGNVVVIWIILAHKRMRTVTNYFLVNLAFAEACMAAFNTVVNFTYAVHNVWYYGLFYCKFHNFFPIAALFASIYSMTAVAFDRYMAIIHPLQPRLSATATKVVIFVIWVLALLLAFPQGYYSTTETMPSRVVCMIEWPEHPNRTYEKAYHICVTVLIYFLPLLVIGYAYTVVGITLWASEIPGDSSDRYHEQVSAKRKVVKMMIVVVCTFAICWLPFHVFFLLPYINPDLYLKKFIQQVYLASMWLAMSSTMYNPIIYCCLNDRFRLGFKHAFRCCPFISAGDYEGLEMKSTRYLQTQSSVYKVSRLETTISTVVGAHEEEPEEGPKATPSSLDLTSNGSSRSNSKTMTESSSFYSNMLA
T1 sequence (P33535 whole entry): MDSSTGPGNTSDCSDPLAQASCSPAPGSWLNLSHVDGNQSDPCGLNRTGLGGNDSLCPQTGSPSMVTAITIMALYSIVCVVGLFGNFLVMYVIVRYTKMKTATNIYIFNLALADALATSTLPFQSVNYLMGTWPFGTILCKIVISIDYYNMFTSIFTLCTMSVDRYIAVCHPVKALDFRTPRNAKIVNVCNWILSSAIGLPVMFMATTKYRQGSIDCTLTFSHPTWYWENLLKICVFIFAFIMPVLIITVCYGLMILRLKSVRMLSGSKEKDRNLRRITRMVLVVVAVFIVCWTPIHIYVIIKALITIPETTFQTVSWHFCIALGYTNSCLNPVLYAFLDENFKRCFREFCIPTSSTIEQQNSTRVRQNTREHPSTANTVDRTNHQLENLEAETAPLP

Row | Molecule | change in analgesia, antagonist alone (Sprague Dawley rats [1]) | hyperalgesia when naltrexone is given with ESP7+2CD (Sprague Dawley rats [1]; naltrexone with 0.2 μg and 1.0 μg ESP7+2CD intrathecal) | Kd (μ receptor) | analgesia (tail flick, % MPE) (Sprague Dawley rats [2]) | Kd (NK1 receptor) | analgesia (tail flick, % MPE) (rats)
1 | COc1ccccc1CC(=N)N1C[C@@H]2C(=O)CCC(c3ccccc3)(c3ccccc3)[C@@H]2C1 [RP67580] | no effect on the level of analgesia |  |  |  |  | 
2 | O=C1CC[C@@]2(O)[C@H]3Cc4ccc(O)c5c4[C@@]2(CCN3CC2CC2)[C@H]1O5 [naltrexone] | produced no change in analgesia | produced some hyperalgesia |  |  |  | 
3 | H-YPFFGLM-NH2 [ESP7, Tyr-Pro-Phe-Phe-Gly-Leu-Met-NH2] |  |  | ~300 nM | produced analgesia | ~200 nM | produced analgesia as seen with intrathecal administration
